# Measurements reported in ChEMBL document CHEMBL5143743, “Novel Thioxothiazolo[3,4-a]quinazolin-5(4H)-one Derivatives as BKCa Channel Activators for Urinary Incontinence” (ACS Med Chem Lett, 2022).
# pEC50: −log10 of the molar value. Calls of active or inactive are those of the source. The rule behind the calls is not given here.
# Key:
# [1] = (§1) Activation of human Slo G803D/N806K mutant expressed in human AD293 cells measured at 2 secs interval for 120 secs by FluxOR based fluorescence assay; assay type: cell-based
# [2] = system: AD293; experiment: Activation of human Slo G803D/N806K mutant expressed in human AD293 cells assessed as initial velocity of channel activation at 6 uM measured at 2 secs interval for 4 secs by FluxOR based fluorescence assay; assay type: cell-based; details: filed as activator, time 4.0 sec
# [3] = system: AD293; experiment: Activation of human Slo G803D/N806K mutant expressed in human AD293 cells assessed as increase in channel activity by measuring change in relative fluorescence unit at 6 uM measured at 2 secs interval for 80 secs by FluxOR based fluorescence assay; assay type: cell-based; details: filed as activator, time 80.0 sec
# [4] = system: AD293; experiment: Activation of human Slo G803D/N806K mutant expressed in human AD293 cells assessed as increase in initial velocity at 5 uM measured at 2 secs interval for 4 secs by FluxOR based fluorescence assay; assay type: cell-based; details: filed as activator, time 4.0 sec
# [5] = Clearance in Sprague-Dawley rat at 5 mg/kg, iv by LC-MS analysis; assay type: ADME, organism-based; details: in vivo
# [6] = Volume of distribution at steady state in Sprague-Dawley rat at 5 mg/kg, iv by LC-MS analysis; assay type: ADME, organism-based; details: in vivo, read-out: Vdss
# [7] = AUC (infinity) in Sprague-Dawley rat at 10 mg/kg, po by LC-MS analysis; assay type: ADME, organism-based; design: time infinity, dose 10 mg/kg, route po; details: in vivo
# [8] = Tmax in Sprague-Dawley rat at 10 mg/kg, po by LC-MS analysis; assay type: ADME, organism-based; details: in vivo
# [9] = AUC (infinity) in Sprague-Dawley rat at 5 mg/kg, iv by LC-MS analysis; assay type: ADME, organism-based; design: time infinity, dose 5 mg/kg, route iv; details: in vivo
# [10] = system: AD293; experiment: Activation of human Slo G803D/N806K mutant expressed in human AD293 cells assessed as increase in initial velocity at 1 uM measured at 2 secs interval for 120 secs by FluxOR based fluorescence assay; assay type: cell-based; details: filed as activator, time 120.0 sec
# [11] = system: Rattus norvegicus; experiment: Inhibition of overactive bladder activity in spontaneously hypertensive rat assessed as reduction in voiding frequency at 10 mg/kg, po measured after 3 hrs; assay type: functional, organism-based
# [12] = Stability in human liver microsomes assessed as parent compound remaining at 1 uM measured after 30 mins in presence of NADPH regeneration system by LC-MS/MS analysis; assay type: ADME, Microsome; details: read-out: Stability
# [13] = system: AD293; experiment: as §1; assay type: cell-based; details: filed as activator, time 120.0 sec, DDE = dose-dependent effect
# [14] = Half life in Sprague-Dawley rat at 10 mg/kg, po by LC-MS analysis; assay type: ADME, organism-based; details: in vivo
# [15] = target: Calcium-activated potassium channel subunit alpha-1 (Rattus norvegicus) (UniProt Q62976); experiment: Activation of rat Slo expressed in Xenopus laevis oocytes assessed as increase in maximum conductance at 10 uM with 100 mV holding potential by patch-clamp electrophysiological method relative to control; assay type: cell-based; details: Oocyte, filed as activator
# Chain of Calcium-activated potassium channel subunit alpha-1 (Rattus norvegicus) (Q62976 whole entry): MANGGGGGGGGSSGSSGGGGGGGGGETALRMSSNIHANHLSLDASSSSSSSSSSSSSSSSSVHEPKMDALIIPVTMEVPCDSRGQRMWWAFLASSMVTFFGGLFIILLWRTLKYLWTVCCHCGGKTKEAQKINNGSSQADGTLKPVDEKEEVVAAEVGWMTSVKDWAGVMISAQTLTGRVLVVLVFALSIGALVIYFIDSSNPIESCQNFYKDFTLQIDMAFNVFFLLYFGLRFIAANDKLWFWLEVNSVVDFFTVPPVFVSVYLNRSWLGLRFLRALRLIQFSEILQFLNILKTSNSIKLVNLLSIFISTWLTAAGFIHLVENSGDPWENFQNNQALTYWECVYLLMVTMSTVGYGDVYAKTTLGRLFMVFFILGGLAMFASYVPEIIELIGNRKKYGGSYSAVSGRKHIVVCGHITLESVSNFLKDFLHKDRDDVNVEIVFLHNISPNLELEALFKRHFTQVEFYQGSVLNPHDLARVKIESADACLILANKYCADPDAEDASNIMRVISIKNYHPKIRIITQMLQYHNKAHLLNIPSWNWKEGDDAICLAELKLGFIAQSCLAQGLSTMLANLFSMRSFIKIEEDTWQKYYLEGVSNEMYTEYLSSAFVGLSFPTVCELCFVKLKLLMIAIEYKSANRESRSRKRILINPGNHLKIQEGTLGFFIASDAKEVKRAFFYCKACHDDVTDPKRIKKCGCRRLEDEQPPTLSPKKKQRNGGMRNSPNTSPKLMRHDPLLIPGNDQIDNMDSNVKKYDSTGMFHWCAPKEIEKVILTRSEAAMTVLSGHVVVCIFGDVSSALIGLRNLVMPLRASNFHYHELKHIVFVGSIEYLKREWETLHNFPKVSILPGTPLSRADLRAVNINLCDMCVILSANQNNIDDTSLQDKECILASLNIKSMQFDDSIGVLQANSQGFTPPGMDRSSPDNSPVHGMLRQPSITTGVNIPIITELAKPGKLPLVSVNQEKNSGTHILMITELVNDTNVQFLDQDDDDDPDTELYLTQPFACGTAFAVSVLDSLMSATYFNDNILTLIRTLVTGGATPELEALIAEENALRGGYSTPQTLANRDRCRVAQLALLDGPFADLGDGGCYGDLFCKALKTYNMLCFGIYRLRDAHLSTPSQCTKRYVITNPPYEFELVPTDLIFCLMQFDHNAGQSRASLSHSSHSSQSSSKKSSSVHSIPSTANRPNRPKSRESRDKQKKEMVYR
# [16] = system: Rattus norvegicus; experiment: Inhibition of overactive bladder activity in spontaneously hypertensive rat assessed as reduction in voiding frequency at 50 mg/kg, po measured after 3 hrs relative to control; assay type: functional
# [17] = target: Calcium-activated potassium channel subunit alpha-1 (Rattus norvegicus) (UniProt Q62976); experiment: Activation of rat Slo expressed in Xenopus laevis oocytes assessed as intracellular shift in voltage at half activation at 10 uM with 100 mV holding potential by patch-clamp electrophysiological method; assay type: cell-based; details: Oocyte, filed as activator
# [18] = target: Calcium-activated potassium channel subunit alpha-1 (Rattus norvegicus) (UniProt Q62976); experiment: Activation of rat Slo expressed in Xenopus laevis oocytes assessed as increase in intracellular maximum conductance at 10 uM with 100 mV holding potential by patch-clamp electrophysiological method relative to control; assay type: cell-based; details: Oocyte, filed as activator
# [19] = Protein binding in rat plasma at 5 uM measured after 4 hrs by LC-MS/MS analysis; assay type: ADME, cell-free; details: read-out: PPB
# [20] = Oral bioavailability in Sprague-Dawley rat at 10 mg/kg by LC-MS analysis; assay type: ADME, organism-based; details: in vivo
# [21] = target: Calcium-activated potassium channel subunit alpha-1 (Rattus norvegicus) (UniProt Q62976); experiment: Activation of rat Slo expressed in Xenopus laevis oocytes assessed as delayed channel closing 10 uM with 100 mV holding potential by patch-clamp electrophysiological method; assay type: cell-based; details: Oocyte, filed as activator
# [22] = Half life in Sprague-Dawley rat at 5 mg/kg, iv by LC-MS analysis; assay type: ADME, organism-based; details: in vivo
# [23] = AUC (0 to 8 hrs) in Sprague-Dawley rat at 10 mg/kg, po by LC-MS analysis; assay type: ADME, organism-based; design: time < 8 hr, dose 10 mg/kg, route po; details: in vivo
# [24] = target: Calcium-activated potassium channel subunit alpha-1 (Rattus norvegicus) (UniProt Q62976); experiment: Activation of rat Slo expressed in Xenopus laevis oocytes assessed as shift in voltage at half activation at 10 uM with 100 mV holding potential by patch-clamp electrophysiological method; assay type: cell-based; details: Oocyte, filed as activator
# [25] = Cmax in Sprague-Dawley rat at 10 mg/kg, po by LC-MS analysis; assay type: ADME, organism-based; design: dose 10 mg/kg, route po; details: in vivo
# [26] = AUC (0 to 8 hrs) in Sprague-Dawley rat at 5 mg/kg, iv by LC-MS analysis; assay type: ADME, organism-based; design: time < 8 hr, dose 5 mg/kg, route iv; details: in vivo
# [27] = Protein binding in human plasma at 5 uM measured after 4 hrs by LC-MS/MS analysis; assay type: ADME, cell-free; details: read-out: PPB
# [28] = target: Calcium-activated potassium channel subunit alpha-1 (Rattus norvegicus) (UniProt Q62976); experiment: Activation of rat Slo expressed in Xenopus laevis oocytes at 10 uM with 100 mV holding potential by patch-clamp electrophysiological method; assay type: cell-based; details: Oocyte, filed as activator
# [29] = target: Calcium-activated potassium channel subunit alpha-1 (Rattus norvegicus) (UniProt Q62976); experiment: Activation of rat Slo expressed in Xenopus laevis oocytes assessed as shortened channel opening 10 uM with 100 mV holding potential by patch-clamp electrophysiological method; assay type: cell-based; details: Oocyte, filed as activator
smiles,measurement,setting,value
COc1cccc(NC(=O)c2sc(=S)n3c2[nH]c(=O)c2cc(Br)ccc23)c1,pEC50,[1],5.18
same,V0,[2],6 s⁻¹
same,Activity,[3],3.35 RFU
O=C(Nc1ccccc1)c1sc(=S)n2c1[nH]c(=O)c1cc(Cl)ccc12,V0,[2],0.38 s⁻¹
same,Activity,[3],1.18 RFU
O=C(Nc1cccc(O)c1)c1sc(=S)n2c1[nH]c(=O)c1cc(Br)ccc12,pEC50,[1],4.95
same,V0,[2],4.03 s⁻¹
same,Activity,[3],4.88 RFU
O=C(Nc1ccccc1)c1sc(=S)n2c1[nH]c(=O)c1ccccc12,V0,[2],0.42 s⁻¹
same,Activity,[3],1.03 RFU
Cc1ccc2c(c1)c(=O)[nH]c1c(C(=O)Nc3ccccc3)sc(=S)n12,V0,[2],0.32 s⁻¹
same,Activity,[3],1.16 RFU
NC(=O)c1sc(=S)n2c1[nH]c(=O)c1ccccc12,V0,[2],0.32 s⁻¹
same,Activity,[3],0.96 RFU
FC(F)(F)c1cc(NC(=S)Nc2ccc(Br)cc2-c2nnn[nH]2)cc(C(F)(F)F)c1,pEC50,[1],4.83
same,V0,[2],1.63 s⁻¹
same,Activity,[3],1.86 RFU
O=C(O)c1sc(=S)n2c1[nH]c(=O)c1ccccc12,pEC50,[1],4.90
same,V0,[2],0.38 s⁻¹
same,Activity,[3],1.38 RFU
Cc1cccc(NC(=O)c2sc(=S)n3c2[nH]c(=O)c2cc(Br)ccc23)c1,pEC50,[1],5.24
same,V0,[2],9.77 s⁻¹
same,Activity,[3],4.98 RFU
O=C(Nc1cccc(Cl)c1)c1sc(=S)n2c1[nH]c(=O)c1cc(Br)ccc12,pEC50,[1],5.31
same,V0,[2],16.1 s⁻¹
same,Activity,[3],3.56 RFU
O=C(Nc1ccccc1)c1sc(=S)n2c1[nH]c(=O)c1cc(Br)ccc12,pEC50,[1],4.91
same,V0,[2],5.51 s⁻¹
same,Activity,[3],3.83 RFU
Cc1ccccc1NC(=O)c1sc(=S)n2c1[nH]c(=O)c1cc(Br)ccc12,pEC50,[1],5.34
same,V0,[2],9.4 s⁻¹
same,Activity,[3],3.68 RFU
O=C(Nc1ccccc1)c1sc(=S)n2c1[nH]c(=O)c1ccc(Br)cc12,V0,[2],0.56 s⁻¹
same,Activity,[3],1.25 RFU
Cc1ccc2c(=O)[nH]c3c(C(=O)Nc4ccccc4)sc(=S)n3c2c1,V0,[2],0.23 s⁻¹
same,Activity,[3],1.06 RFU
O=C(NCc1ccccc1)c1sc(=S)n2c1[nH]c(=O)c1ccccc12,V0,[2],0.26 s⁻¹
same,Activity,[3],1.1 RFU
O=C(Nc1ccccc1)c1sc(=S)n2c1[nH]c(=O)c1ccc(Cl)cc12,V0,[2],0.84 s⁻¹
same,Activity,[3],1.56 RFU
Cc1ccc(NC(=O)c2sc(=S)n3c2[nH]c(=O)c2cc(Br)ccc23)cc1,V0,[2],0.71 s⁻¹
same,Activity,[3],1.41 RFU
O=C(Nc1cc(C(F)(F)F)cc(C(F)(F)F)c1)c1sc(=S)n2c1[nH]c(=O)c1cc(Br)ccc12,pEC50,[1],4.76
same,V0,[2],2.08 s⁻¹
same,Activity,[3],2.28 RFU
O=C(Nc1cccc(OC(F)(F)F)c1)c1sc(=S)n2c1[nH]c(=O)c1cc(Br)ccc12,pEC50,[1],5.42
same,V0,[2],14.8 s⁻¹
same,Activity,[3],4.37 RFU
O=C(Nc1cccc(C(F)(F)F)c1)c1sc(=S)n2c1[nH]c(=O)c1cc(Br)ccc12,Activity,[4],Active
same,clearance,[5],4.5 mL/min/kg
same,Vd,[6],1.83 L/kg
same,AUC,[7],17.2 uM.hr/ml
same,Tmax,[8],6.67 h
same,AUC,[9],30.63 uM.hr/ml
same,Activity,[10],Active
same,inhibition,[11],Active
same,"remaining at 0.5 h, 1 µM",[12],76%
same,pEC50,[1],5.54
same,Activity,[13],Dde
same,half-life,[14],8.5 h
same,fold change (FC),[15],1.5
same,inhibition in vivo at 50 mg/kg,[16],33%
same,delta(V1/2),[17],7.5 mV
same,fold change (FC),[18],1.3
same,V0,[2],16.8 s⁻¹
same,"fraction unbound at 4 h, 5 µM",[19],< 0.03
same,bioavailability,[20],25.4%
same,Activity,[21],Active
same,half-life,[22],6.59 h
same,AUC,[23],13.64 uM.hr/ml
same,delta(V1/2),[24],42.6 mV
same,Activity,[3],3.35 RFU
same,Cmax,[25],1190 ng/mL
same,AUC,[26],26.8 uM.hr/ml
same,"fraction unbound at 4 h, 5 µM",[27],< 0.03
same,Activity,[28],Active
same,Activity,[29],Active
O=C(Nc1cccc(F)c1)c1sc(=S)n2c1[nH]c(=O)c1cc(Br)ccc12,"remaining at 0.5 h, 1 µM",[12],56%
same,pEC50,[1],5.94
same,V0,[2],12.6 s⁻¹
same,Activity,[3],2.85 RFU
